US6358885B1, “Substituted phenylheterocyclic herbicides” (Mississippi State University, priority 1992, dated 2002)

What was measured:
Assay in all cases: Test B preemergence/postemergence greenhouse plant response rating 0 to 10
[1] = test system: bedstraw; format: in vivo, Galium aparine; details: for Plant response rating, Bedstraw: 0 to 10 scale
Procedure, shortened: (§1)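 Planted seeds are treated preemergence with compound dissolved in a non-phytotoxic solvent, while postemergence applications go onto plants of two to eighteen cm. Plants stay in the greenhouse twelve to sixteen days and are then rated visually relative to controls.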

[2] = test system: chickweed; format: in vivo, Stellaria media; details: for Plant response rating, Chickweed: 0 to 10 scale
Procedure, shortened: as §1

[3] = test system: cheatgrass; format: in vivo, Bromus secalinus; details: for Plant response rating, Cheatgrass: 0 to 10 scale
Procedure, shortened: as §1

[4] = test system: cotton; format: in vivo, Gossypium hirsutum; details: for Plant response rating, Cotton: 0 to 10 scale
Procedure, shortened: as §1

[5] = test system: morningglory; format: in vivo, Ipomoea hederacea; details: for Plant response rating, Morningglory: 0 to 10 scale
Procedure, shortened: as §1

[6] = test system: purple nutsedge; format: in vivo, Cyperus rotundus; details: for Plant response rating, Nutsedge: 0 to 10 scale
Procedure, shortened: as §1

[7] = test system: wild oat; format: in vivo, Avena fatua; details: for Plant response rating, Wild oat: 0 to 10 scale
Procedure, shortened: as §1

[8] = test system: wild buckwheat; format: in vivo, Polygonum convolvulus; details: for Plant response rating, Wild buckwheat: 0 to 10 scale
Procedure, shortened: as §1

[9] = test system: crabgrass; format: in vivo, Digitaria spp.; details: for Plant response rating, Crabgrass: 0 to 10 scale
Procedure, shortened: as §1

[10] = test system: soybean; format: in vivo, Glycine max; details: for Plant response rating, Soybean: 0 to 10 scale
Procedure, shortened: as §1

[11] = test system: sorghum; format: in vivo, Sorghum bicolor; details: for Plant response rating, Sorghum: 0 to 10 scale
Procedure, shortened: as §1

[12] = test system: cocklebur; format: in vivo, Xanthium pensylvanicum; details: for Plant response rating, Cocklebur: 0 to 10 scale
Procedure, shortened: as §1

[13] = test system: barnyardgrass; format: in vivo, Echinochloa crus-galli; details: for Plant response rating, Barnyardgrass: 0 to 10 scale
Procedure, shortened: as §1

[14] = test system: barley; format: in vivo, Hordeum vulgare; details: for Plant response rating, Barley: 0 to 10 scale
Procedure, shortened: as §1

[15] = test system: wheat; format: in vivo, Triticum aestivum; details: for Plant response rating, Wheat: 0 to 10 scale
Procedure, shortened: as §1

[16] = test system: blackgrass; format: in vivo, Alopecurus myosuroides; details: for Plant response rating, Blackgrass: 0 to 10 scale
Procedure, shortened: as §1

[17] = test system: rape; format: in vivo, Brassica napus; details: for Plant response rating, Rape: 0 to 10 scale
Procedure, shortened: as §1

[18] = test system: lambsquarters; format: in vivo, Chenopodium album; details: for Plant response rating, Lambsquarter: 0 to 10 scale
Procedure, shortened: as §1

[19] = test system: corn; format: in vivo, Zea mays; details: for Plant response rating, Corn: 0 to 10 scale
Procedure, shortened: as §1

[20] = test system: rice; format: in vivo, Oryza sativa; details: for Plant response rating, Rice: 0 to 10 scale
Procedure, shortened: as §1

[21] = test system: velvetleaf; format: in vivo, Abutilon theophrasti; details: for Plant response rating, Velvetleaf: 0 to 10 scale
Procedure, shortened: as §1

[22] = test system: giant foxtail; format: in vivo, Setaria faberii; details: for Plant response rating, Giant foxtail: 0 to 10 scale
Procedure, shortened: as §1

[23] = test system: sugar beet; format: in vivo, Beta vulgaris; details: for Plant response rating, Sugar beet: 0 to 10 scale
Procedure, shortened: as §1

C=CCOc1cc(-c2nn3c(c2Cl)CCCC3)c(Cl)cc1Cl [Compound 71]
Plant response rating, Bedstraw ([1]; POSTEMERGENCE, Rate 50 g/ha): 8
Plant response rating, Bedstraw ([1]; PREEMERGENCE, Rate 50 g/ha): 2
Plant response rating (0 to 10 scale), Bedstraw ([1]; PREEMERGENCE, Rate 200 g/ha): 6
Plant response rating, Bedstraw ([1]; Rate 200 g/ha, POSTEMERGENCE): 9
Plant response rating, Chickweed ([2]; POSTEMERGENCE, Rate 50 g/ha): 2
Plant response rating, Chickweed ([2]; PREEMERGENCE, Rate 50 g/ha): 0
Plant response rating (0 to 10 scale), Chickweed ([2]; PREEMERGENCE, Rate 200 g/ha): 0
Plant response rating, Chickweed ([2]; Rate 200 g/ha, POSTEMERGENCE): 3
Plant response rating, Cheatgrass ([3]; POSTEMERGENCE, Rate 50 g/ha): 4
Plant response rating, Cheatgrass ([3]; PREEMERGENCE, Rate 50 g/ha): 0
Plant response rating (0 to 10 scale), Cheatgrass ([3]; PREEMERGENCE, Rate 200 g/ha): 2
Plant response rating, Cheatgrass ([3]; Rate 200 g/ha, POSTEMERGENCE): 6
Plant response rating, Cotton ([4]; POSTEMERGENCE, Rate 50 g/ha): 10
Plant response rating, Cotton ([4]; PREEMERGENCE, Rate 50 g/ha): 0
Plant response rating (0 to 10 scale), Cotton ([4]; PREEMERGENCE, Rate 200 g/ha): 0
Plant response rating, Cotton ([4]; Rate 200 g/ha, POSTEMERGENCE): 10
Plant response rating, Morningglory ([5]; POSTEMERGENCE, Rate 50 g/ha): 10
Plant response rating, Morningglory ([5]; PREEMERGENCE, Rate 50 g/ha): 0
Plant response rating (0 to 10 scale), Morningglory ([5]; PREEMERGENCE, Rate 200 g/ha): 0
Plant response rating, Morningglory ([5]; Rate 200 g/ha, POSTEMERGENCE): 10
Plant response rating, Nutsedge ([6]; POSTEMERGENCE, Rate 50 g/ha): 2
Plant response rating, Nutsedge ([6]; PREEMERGENCE, Rate 50 g/ha): 0
Plant response rating (0 to 10 scale), Nutsedge ([6]; PREEMERGENCE, Rate 200 g/ha): 5
Plant response rating, Nutsedge ([6]; Rate 200 g/ha, POSTEMERGENCE): 2
Plant response rating, Wild oat ([7]; POSTEMERGENCE, Rate 50 g/ha): 3
Plant response rating, Wild oat ([7]; PREEMERGENCE, Rate 50 g/ha): 2
Plant response rating (0 to 10 scale), Wild oat ([7]; PREEMERGENCE, Rate 200 g/ha): 2
Plant response rating, Wild oat ([7]; Rate 200 g/ha, POSTEMERGENCE): 5
Plant response rating, Wild buckwheat ([8]; POSTEMERGENCE, Rate 50 g/ha): 10
Plant response rating, Wild buckwheat ([8]; PREEMERGENCE, Rate 50 g/ha): 0
Plant response rating (0 to 10 scale), Wild buckwheat ([8]; PREEMERGENCE, Rate 200 g/ha): 10
Plant response rating, Wild buckwheat ([8]; Rate 200 g/ha, POSTEMERGENCE): 10
Plant response rating, Crabgrass ([9]; POSTEMERGENCE, Rate 50 g/ha): 3
Plant response rating, Crabgrass ([9]; PREEMERGENCE, Rate 50 g/ha): 0
Plant response rating (0 to 10 scale), Crabgrass ([9]; PREEMERGENCE, Rate 200 g/ha): 5
Plant response rating, Crabgrass ([9]; Rate 200 g/ha, POSTEMERGENCE): 3
Plant response rating, Soybean ([10]; POSTEMERGENCE, Rate 50 g/ha): 6
Plant response rating, Soybean ([10]; PREEMERGENCE, Rate 50 g/ha): 0
Plant response rating (0 to 10 scale), Soybean ([10]; PREEMERGENCE, Rate 200 g/ha): 0
Plant response rating, Soybean ([10]; Rate 200 g/ha, POSTEMERGENCE): 7
Plant response rating, Sorghum ([11]; POSTEMERGENCE, Rate 50 g/ha): 6
Plant response rating, Sorghum ([11]; PREEMERGENCE, Rate 50 g/ha): 0
Plant response rating (0 to 10 scale), Sorghum ([11]; PREEMERGENCE, Rate 200 g/ha): 0
Plant response rating, Sorghum ([11]; Rate 200 g/ha, POSTEMERGENCE): 6
Plant response rating, Cocklebur ([12]; POSTEMERGENCE, Rate 50 g/ha): 7
Plant response rating, Cocklebur ([12]; PREEMERGENCE, Rate 50 g/ha): 0
Plant response rating (0 to 10 scale), Cocklebur ([12]; PREEMERGENCE, Rate 200 g/ha): 0
Plant response rating, Cocklebur ([12]; Rate 200 g/ha, POSTEMERGENCE): 8
Plant response rating, Barnyardgrass ([13]; POSTEMERGENCE, Rate 50 g/ha): 6
Plant response rating, Barnyardgrass ([13]; PREEMERGENCE, Rate 50 g/ha): 0
Plant response rating (0 to 10 scale), Barnyardgrass ([13]; PREEMERGENCE, Rate 200 g/ha): 5
Plant response rating, Barnyardgrass ([13]; Rate 200 g/ha, POSTEMERGENCE): 8
Plant response rating, Barley ([14]; POSTEMERGENCE, Rate 50 g/ha): 3
Plant response rating, Barley ([14]; PREEMERGENCE, Rate 50 g/ha): 0
Plant response rating (0 to 10 scale), Barley ([14]; PREEMERGENCE, Rate 200 g/ha): 0
Plant response rating, Barley ([14]; Rate 200 g/ha, POSTEMERGENCE): 4
Plant response rating, Wheat ([15]; POSTEMERGENCE, Rate 50 g/ha): 4
Plant response rating, Wheat ([15]; PREEMERGENCE, Rate 50 g/ha): 0
Plant response rating (0 to 10 scale), Wheat ([15]; PREEMERGENCE, Rate 200 g/ha): 2
Plant response rating, Wheat ([15]; Rate 200 g/ha, POSTEMERGENCE): 6
Plant response rating, Blackgrass ([16]; POSTEMERGENCE, Rate 50 g/ha): 4
Plant response rating, Blackgrass ([16]; PREEMERGENCE, Rate 50 g/ha): 0
Plant response rating (0 to 10 scale), Blackgrass ([16]; PREEMERGENCE, Rate 200 g/ha): 0
Plant response rating, Blackgrass ([16]; Rate 200 g/ha, POSTEMERGENCE): 6
Plant response rating, Rape ([17]; POSTEMERGENCE, Rate 50 g/ha): 8
Plant response rating, Rape ([17]; PREEMERGENCE, Rate 50 g/ha): 0
Plant response rating (0 to 10 scale), Rape ([17]; PREEMERGENCE, Rate 200 g/ha): 3
Plant response rating, Rape ([17]; Rate 200 g/ha, POSTEMERGENCE): 10
Plant response rating, Lambsquarter ([18]; POSTEMERGENCE, Rate 50 g/ha): 10
Plant response rating, Lambsquarter ([18]; PREEMERGENCE, Rate 50 g/ha): 10
Plant response rating (0 to 10 scale), Lambsquarter ([18]; PREEMERGENCE, Rate 200 g/ha): 10
Plant response rating, Lambsquarter ([18]; Rate 200 g/ha, POSTEMERGENCE): 10
Plant response rating, Corn ([19]; POSTEMERGENCE, Rate 50 g/ha): 3
Plant response rating, Corn ([19]; PREEMERGENCE, Rate 50 g/ha): 0
Plant response rating (0 to 10 scale), Corn ([19]; PREEMERGENCE, Rate 200 g/ha): 2
Plant response rating, Corn ([19]; Rate 200 g/ha, POSTEMERGENCE): 3
Plant response rating, Rice ([20]; POSTEMERGENCE, Rate 50 g/ha): 4
Plant response rating, Rice ([20]; PREEMERGENCE, Rate 50 g/ha): 0
Plant response rating (0 to 10 scale), Rice ([20]; PREEMERGENCE, Rate 200 g/ha): 0
Plant response rating, Rice ([20]; Rate 200 g/ha, POSTEMERGENCE): 5
Plant response rating, Velvetleaf ([21]; POSTEMERGENCE, Rate 50 g/ha): 10
Plant response rating, Velvetleaf ([21]; PREEMERGENCE, Rate 50 g/ha): 0
Plant response rating (0 to 10 scale), Velvetleaf ([21]; PREEMERGENCE, Rate 200 g/ha): 10
Plant response rating, Velvetleaf ([21]; Rate 200 g/ha, POSTEMERGENCE): 10
Plant response rating, Giant foxtail ([22]; POSTEMERGENCE, Rate 50 g/ha): 5
Plant response rating, Giant foxtail ([22]; PREEMERGENCE, Rate 50 g/ha): 0
Plant response rating (0 to 10 scale), Giant foxtail ([22]; PREEMERGENCE, Rate 200 g/ha): 8
Plant response rating, Giant foxtail ([22]; Rate 200 g/ha, POSTEMERGENCE): 6
Plant response rating, Sugar beet ([23]; POSTEMERGENCE, Rate 50 g/ha): 10
Plant response rating, Sugar beet ([23]; PREEMERGENCE, Rate 50 g/ha): 5
Plant response rating (0 to 10 scale), Sugar beet ([23]; PREEMERGENCE, Rate 200 g/ha): 10
Plant response rating, Sugar beet ([23]; Rate 200 g/ha, POSTEMERGENCE): 10
